Assay results reported in PubChem BioAssay AID2060617 (Molecular Pharmacology Branch, DTP, NCI, 2025).

System: 485368-065-R4-J2-PDC spheroids with HUVEC/MSC, viability
Test: Anticancer human tumor 485368-065-R4-J2-PDC patient-derived pancreatic carcinoma cell line growth inhibition [CLK]
Details: for IC50: curve of first compound; for viability, T/C: stronger effect = lower value; active means viability on the fitted dose curve at most 10% of control; inactive means the rest
Procedure, shortened: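 Multi-cell-type spheroids combined patient-derived tumor cells with HUVEC endothelial cells and human mesenchymal stem cells. Paired agents were dosed in half-log steps down from about clinical Cmax, or from 10 microM where Cmax was unknown.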

[1] = second compound 0.0316 µM, first compound 0.0316 µM
[2] = second compound 0.0316 µM, first compound 0.1 µM
[3] = second compound 0.0316 µM, first compound 0.316 µM
[4] = second compound 0.0316 µM, first compound 1 µM
[5] = second compound 0.0316 µM, first compound 3.16 µM
[6] = second compound 0.0316 µM, first compound 10 µM
[7] = second compound 0.1 µM, first compound 0.0316 µM
[8] = second compound 0.1 µM, first compound 0.1 µM
[9] = second compound 0.1 µM, first compound 0.316 µM
[10] = second compound 0.1 µM, first compound 1 µM
[11] = second compound 0.1 µM, first compound 3.16 µM
[12] = second compound 0.1 µM, first compound 10 µM
[13] = second compound 0.316 µM, first compound 0.0316 µM
[14] = second compound 0.316 µM, first compound 0.1 µM
[15] = second compound 0.316 µM, first compound 0.316 µM
[16] = second compound 0.316 µM, first compound 1 µM
[17] = second compound 0.316 µM, first compound 3.16 µM
[18] = second compound 0.316 µM, first compound 10 µM
[19] = second compound 1 µM, first compound 0.0316 µM
[20] = second compound 1 µM, first compound 0.1 µM
[21] = second compound 1 µM, first compound 0.316 µM
[22] = second compound 1 µM, first compound 1 µM
[23] = second compound 1 µM, first compound 3.16 µM
[24] = second compound 1 µM, first compound 10 µM
[25] = second compound 3.16 µM, first compound 0.0316 µM
[26] = second compound 3.16 µM, first compound 0.1 µM
[27] = second compound 3.16 µM, first compound 0.316 µM
[28] = second compound 3.16 µM, first compound 1 µM
[29] = second compound 3.16 µM, first compound 3.16 µM
[30] = second compound 3.16 µM, first compound 10 µM
[31] = second compound 10 µM, first compound 0.0316 µM
[32] = second compound 10 µM, first compound 0.1 µM
[33] = second compound 10 µM, first compound 0.316 µM
[34] = second compound 10 µM, first compound 1 µM
[35] = second compound 10 µM, first compound 3.16 µM
[36] = second compound 10 µM, first compound 10 µM
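Further: spheroids exposed to compounds for seven days.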
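Wherever viability, T/C is given: 100% = DMSO vehicle control wells.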

O=C(c1cc(Cc2n[nH]c(=O)c3ccccc23)ccc1F)N1CCN(C(=O)C2CC2)CC1 + CNC(=O)c1ccc(Nc2nc(OC3CCCC3)c3c(-c4ccc5nc(C)oc5c4)c[nH]c3n2)c(OC)c1
inactive: viability, T/C [1] 88% | viability, T/C [2] 101% | viability, T/C [3] 94.5% | viability, T/C [4] 102% | viability, T/C [5] 106% | viability, T/C [6] 100% | viability, T/C [7] 97.5% | viability, T/C [8] 106% | viability, T/C [9] 104% | viability, T/C [10] 106% | viability, T/C [11] 101% | viability, T/C [12] 86.1% | viability, T/C [13] 87.9% | viability, T/C [14] 91% | viability, T/C [15] 91.6% | viability, T/C [16] 83.7% | viability, T/C [17] 84.3% | viability, T/C [18] 81.7% | viability, T/C [19] 83.6% | viability, T/C [20] 83.3% | viability, T/C [21] 86.2% | viability, T/C [22] 78.3% | viability, T/C [23] 78.8% | viability, T/C [24] 71.8% | viability, T/C [25] 75.9% | viability, T/C [26] 77.6% | viability, T/C [27] 72.9% | viability, T/C [28] 73.5% | viability, T/C [29] 69.6% | viability, T/C [30] 68.2% | viability, T/C [31] 76.3% | viability, T/C [32] 86.9% | viability, T/C [33] 77.5% | viability, T/C [34] 76.5% | viability, T/C [35] 77.3% | viability, T/C [36] 59.3%
> 10000 nM: IC50 (second compound 0.0316 µM) | IC50 (second compound 0.1 µM) | IC50 (second compound 0.316 µM) | IC50 (second compound 1 µM) | IC50 (second compound 3.16 µM) | IC50 (second compound 10 µM)

COc1ccc([C@@H](O)c2cc(-c3ncnc4cc(N5CCOCC5)ccc34)c(F)cc2Cl)nn1 + CN1CCN(c2cc(C(=O)Nc3cc4cc(-c5cnn(C)c5)ccc4cn3)ccn2)CC1
< 31.6 nM: IC50 (second compound 1 µM) | IC50 (second compound 3.16 µM) | IC50 (second compound 10 µM)
> 10000 nM: IC50 (second compound 0.0316 µM) | IC50 (second compound 0.1 µM)
inactive: viability, T/C [1] 106% | viability, T/C [2] 109% | viability, T/C [3] 111% | viability, T/C [4] 119% | viability, T/C [5] 109% | viability, T/C [6] 82% | viability, T/C [7] 114% | viability, T/C [8] 113% | viability, T/C [9] 113% | viability, T/C [10] 115% | viability, T/C [11] 100% | viability, T/C [12] 74.6% | viability, T/C [13] 79% | viability, T/C [14] 81.2% | viability, T/C [15] 69.7% | viability, T/C [16] 65% | viability, T/C [17] 61.3% | viability, T/C [18] 47.2%
active: viability, T/C [19] 0.59% | viability, T/C [20] 0.61% | viability, T/C [21] 0.67% | viability, T/C [22] 0.97% | viability, T/C [23] 0.95% | viability, T/C [24] 1.67% | viability, T/C [25] 1.12% | viability, T/C [26] 1.03% | viability, T/C [27] 0.98% | viability, T/C [28] 1.02% | viability, T/C [29] 1.01% | viability, T/C [30] 1.54% | viability, T/C [31] 1.19% | viability, T/C [32] 1.26% | viability, T/C [33] 1.23% | viability, T/C [34] 1.29% | viability, T/C [35] 2.19% | viability, T/C [36] 3.09%
8180 nM: IC50 (second compound 0.316 µM)

CC(C)CC(NC(=O)C(Cc1ccccc1)NC(=O)c1cnccn1)B(O)O (stereo not drawn) + CN1CCN(c2cc(C(=O)Nc3cc4cc(-c5cnn(C)c5)ccc4cn3)ccn2)CC1
active: viability, T/C (second compound 0.0316 µM, first compound 0.03 µM) 14.3% | viability, T/C (second compound 0.0316 µM, first compound 0.0949 µM) 8.25% | viability, T/C (second compound 0.0316 µM, first compound 0.3 µM) 4.1% | viability, T/C (second compound 0.1 µM, first compound 0.03 µM) 14.3% | viability, T/C (second compound 0.1 µM, first compound 0.0949 µM) 7.86% | viability, T/C (second compound 0.1 µM, first compound 0.3 µM) 3.66% | viability, T/C (second compound 0.316 µM, first compound 0.03 µM) 8.49% | viability, T/C (second compound 0.316 µM, first compound 0.0949 µM) 4.29% | viability, T/C (second compound 0.316 µM, first compound 0.3 µM) 2.89% | viability, T/C (second compound 1 µM, first compound 0.000949 µM) 1% | viability, T/C (second compound 1 µM, first compound 0.003 µM) 3.72% | viability, T/C (second compound 1 µM, first compound 0.00949 µM) 2.87% | viability, T/C (second compound 1 µM, first compound 0.03 µM) 1.87% | viability, T/C (second compound 1 µM, first compound 0.0949 µM) 3.57% | viability, T/C (second compound 1 µM, first compound 0.3 µM) 3.73% | viability, T/C (second compound 3.16 µM, first compound 0.000949 µM) 1.35% | viability, T/C (second compound 3.16 µM, first compound 0.003 µM) 4.02% | viability, T/C (second compound 3.16 µM, first compound 0.00949 µM) 3% | viability, T/C (second compound 3.16 µM, first compound 0.03 µM) 3.03% | viability, T/C (second compound 3.16 µM, first compound 0.0949 µM) 3.95% | viability, T/C (second compound 3.16 µM, first compound 0.3 µM) 4.37% | viability, T/C (second compound 10 µM, first compound 0.000949 µM) 1.26% | viability, T/C (second compound 10 µM, first compound 0.003 µM) 3.6% | viability, T/C (second compound 10 µM, first compound 0.00949 µM) 2.94% | viability, T/C (second compound 10 µM, first compound 0.03 µM) 1.87% | viability, T/C (second compound 10 µM, first compound 0.0949 µM) 2.33% | viability, T/C (second compound 10 µM, first compound 0.3 µM) 1.8%
inactive: viability, T/C (second compound 0.0316 µM, first compound 0.000949 µM) 93.5% | viability, T/C (second compound 0.0316 µM, first compound 0.003 µM) 118% | viability, T/C (second compound 0.0316 µM, first compound 0.00949 µM) 29.8% | viability, T/C (second compound 0.1 µM, first compound 0.000949 µM) 102% | viability, T/C (second compound 0.1 µM, first compound 0.003 µM) 92.2% | viability, T/C (second compound 0.1 µM, first compound 0.00949 µM) 24.4% | viability, T/C (second compound 0.316 µM, first compound 0.000949 µM) 89.5% | viability, T/C (second compound 0.316 µM, first compound 0.003 µM) 39.8% | viability, T/C (second compound 0.316 µM, first compound 0.00949 µM) 14.8%
6.16 nM: IC50 (second compound 0.1 µM)
6.99 nM: IC50 (second compound 0.0316 µM)
2.36 nM: IC50 (second compound 0.316 µM)
< 0.949 nM: IC50 (second compound 1 µM) | IC50 (second compound 3.16 µM) | IC50 (second compound 10 µM)

COc1c(OCCCN2CCOCC2)ccc2c3n(c(=NC(=O)c4cnc(N)nc4)nc12)CCN3 + CN1CCN(c2cc(C(=O)Nc3cc4cc(-c5cnn(C)c5)ccc4cn3)ccn2)CC1
inactive: viability, T/C (second compound 0.0316 µM, first compound 0.00316 µM) 102% | viability, T/C (second compound 0.0316 µM, first compound 0.01 µM) 113% | viability, T/C [1] 85.8% | viability, T/C [2] 71.3% | viability, T/C [3] 42% | viability, T/C [4] 37.8% | viability, T/C (second compound 0.1 µM, first compound 0.00316 µM) 93.7% | viability, T/C (second compound 0.1 µM, first compound 0.01 µM) 99.9% | viability, T/C [7] 82.7% | viability, T/C [8] 53.7% | viability, T/C [9] 32.4% | viability, T/C [10] 33.2% | viability, T/C (second compound 0.316 µM, first compound 0.00316 µM) 69.4% | viability, T/C (second compound 0.316 µM, first compound 0.01 µM) 61.1% | viability, T/C [13] 45.1% | viability, T/C [14] 22.4% | viability, T/C [15] 16.4% | viability, T/C [16] 22.5%
22 nM: IC50 (second compound 0.316 µM)
117 nM: IC50 (second compound 0.1 µM)
245 nM: IC50 (second compound 0.0316 µM)
active: viability, T/C (second compound 1 µM, first compound 0.00316 µM) 2.4% | viability, T/C (second compound 1 µM, first compound 0.01 µM) 1.65% | viability, T/C [19] 1.92% | viability, T/C [20] 0.96% | viability, T/C [21] 1.07% | viability, T/C [22] 5.51% | viability, T/C (second compound 3.16 µM, first compound 0.00316 µM) 1.02% | viability, T/C (second compound 3.16 µM, first compound 0.01 µM) 2.04% | viability, T/C [25] 1.56% | viability, T/C [26] 1.95% | viability, T/C [27] 2.07% | viability, T/C [28] 1.38% | viability, T/C (second compound 10 µM, first compound 0.00316 µM) 1.34% | viability, T/C (second compound 10 µM, first compound 0.01 µM) 2.28% | viability, T/C [31] 3.18% | viability, T/C [32] 3.27% | viability, T/C [33] 2.35% | viability, T/C [34] 2%
< 3.16 nM: IC50 (second compound 1 µM) | IC50 (second compound 3.16 µM) | IC50 (second compound 10 µM)
